Experimental data taken from patent publication US11504385B2, “Proteolysis targeting chimeric molecule, preparation method, and application” (CHINA PHARMACEUTICAL UNIVERSITY, priority 2019, dated 2022).

Columns and labels:
Type in all cases: cell-based
K562 cell line = assay: Cell viability test (CellTiter-Glo), K562
Experimental: (§1) The operation method of the K562 cell viability test is as follows:
(§2) 50 μL of K562, MCF-7, HCT116 and A549 cell suspensions were added to a 96-well plate and incubated for 12 hours. 10 μL of compound was added to the well and incubated for 48 hours. Operation was performed according to a CellTiter-Glo® luminescent cell viability assay kit (Promega). Nonlinear regression analysis data in GraphPad Prism 6 was used.

A549 = assay: Cell viability test (CellTiter-Glo), A549; details: A549, non-BCR-ABL dependent tumor cell line
Experimental: as §1, §2

BCR-ABL fusion protein = target: T1, BCR-ABL fusion protein (Homo sapiens, UniProt P00519+P11274+Q96SW2, E27K); assay: Simulated light control, BCR-ABL level in K562 cells (immunoblotting); details: 100 nM for 24 hours, then fresh medium
T1 construct: By using BCR-ABL and CRBN positive K562 cell lines; endogenous in cells; host or cells: K562
Experimental: (§3) In order to simulate a light control process, the researchers treated K562 cells with the compound 4C-trans for 24 hours. Then the cells were transferred to fresh media and divided into 2 groups: one group was placed in a dark room (VIS group), and the other group was irradiated with UV after 0, 4, 8, 12, 16, and 24 hours of incubation to simulate the photo-isomerization process (UV group).
(§4) The specific operation method for simulating light control is as follows:
(§5) The compound 4C-trans at a final concentration of 100 nM was added to K562 cells, and the cells were incubated at 37° C. for 24 hours. The medium was washed off, and the cells were washed 2 times with 1*PBS. Then the cells were transferred to fresh 1640 medium (10% FBS, 1*glutamine) for culture, and divided into two groups: one group was placed in a dark room, and the other group was irradiated with UV-C light for 30 min every 4 hours. The cells were collected after transfer and incubation for 0, 4, 8, 16, and 24 hours respectively, and post-treatment of the cells was the same as that of immunoblotting.

K562 cells [1] = assay: Anti-K562 cell proliferation activity test (CCK-8); details: Homo sapiens, 48 hours, read-out: median inhibitory concentration (IC50)
Experimental: The operation method of the anti-K562 cell proliferation activity test is as follows:
100 μL of K562 cell suspension and 10 μL of test compounds of different concentrations were prepared in a 96-well plate. The culture plate was placed in an incubator for incubation for 48 hours (37° C., 5% CO2). 10 μL of CCK-8 solution was added to each well. The culture plate was placed in an incubator for incubation for 1-4 hours. The absorbency was measured at 450 nm with a microplate reader. […] (%)=[A (with drug)−A (blank)]/[A (with 0 drug)−A (blank)]×100, wherein:
A (with drug): the absorbency of the wells containing cells, CCK-8 solution and drug solution
A (blank): the absorbency of wells containing medium and CCK-8 solution but no cells
A (with 0 drug): the absorbency of the wells containing cells and CCK-8 solution but no drug solution

HEK293T = assay: Cell viability test, HEK293T; details: non-BCR-ABL dependent cell line
ABL [2] = target: T2, ABL (Homo sapiens, UniProt P00519); assay: Simulated light control, ABL level in K562 cells (immunoblotting); details: 100 nM for 24 hours, then fresh medium
T2 construct: degradation effect of the compound 4C on c-ABL and BCR-ABL proteins in K562 cells; endogenous in cells; host or cells: K562
Experimental: as §3, §4, §5

MCF-7 breast cancer = assay: Cell viability test (CellTiter-Glo), MCF-7; details: non-BCR-ABL dependent tumor cell line
Experimental: as §1, §2

ABL [3] = target: T2, ABL; assay: Immunoblotting, degradation of ABL protein in K562 cells
Experimental: Initially, researchers synthesized a 2C compound (FIG. 2A), which is a small molecule with the shortest joining chain (n=1). By using BCR-ABL and CRBN positive K562 cell lines, degradation of ABL and BCR-ABL proteins in the cells under the action of the compound was tested by immunoblotting. […] Then, the researchers tried to extend the joining chain (increasing the value of n).
In order to test the degradation effect of the compound 4C on c-ABL and BCR-ABL proteins in K562 cells, the researchers performed an immunoblotting experiment. […] In order to exclude the possibility that the compound 4C affected the ABL gene to generate false positive expression, the researchers used RT-qPCR in K562 cells to study the expression of the ABL gene.
The operation method of the immunoblotting experiment is as follows:
K562 cells after administration were incubated for 24 hours.
The medium was aspirated from the culture; the cells were washed with 1*PBS; and the cells were aspirated.
A weak RIPA lysate (100 μL) was added to lyse the cells for 40 min.
The sample was centrifuged at 13000 rpm, 4° C. for 15 min; 80 μl of supernatant was taken and added to 20 μl of loading buffer; the reaction solution was heated at 100° C. for 8 minutes; and the sample was placed on ice and cooled.
[…] of sample was loaded on 10% SDS-PAGE gel. The sample was transferred to a PVDF membrane by a wet process.
A membrane was placed in 25 ml of blocking buffer and blocked at room temperature for 1 hour.
The membrane and the primary antibody (according to the appropriate dilution and diluent recommended in the product description) were placed in 10 ml of primary antibody dilution buffer, and incubated overnight at 4° C. and gently shaken from time to time.
Anti-rabbit IgG, HRP-linked Antibody (#7074, in a ratio of 1:2000) and anti-biotin, HRP-linked Antibody (#7075, in a ratio of 1:1000-1:3000) are diluted with 10 ml of blocking buffer to detect biotinylated protein standards. The membrane was incubated with the diluent, and gently shaken and incubated at room temperature for 1 hour.
A developer solution and the membrane were incubated together for 1 minute, the excess solution was discarded (the membrane remained moist) and the membrane was exposed.
Next, we tested the difference in the activity of different configurations of compound 4C in degradation of ABL and BCR-ABL proteins. […] The operation method of the immunoblotting experiment is the same as above.

K562 cells [4] = assay: Time-effect experiment, apoptosis of K562 cells; details: 250 nM, after 48 hours
[5] = UV-C 30 min every 4 hours (UV group)
[6] = dark room (VIS group), 0-24 hours

T2 sequence (P00519 whole entry): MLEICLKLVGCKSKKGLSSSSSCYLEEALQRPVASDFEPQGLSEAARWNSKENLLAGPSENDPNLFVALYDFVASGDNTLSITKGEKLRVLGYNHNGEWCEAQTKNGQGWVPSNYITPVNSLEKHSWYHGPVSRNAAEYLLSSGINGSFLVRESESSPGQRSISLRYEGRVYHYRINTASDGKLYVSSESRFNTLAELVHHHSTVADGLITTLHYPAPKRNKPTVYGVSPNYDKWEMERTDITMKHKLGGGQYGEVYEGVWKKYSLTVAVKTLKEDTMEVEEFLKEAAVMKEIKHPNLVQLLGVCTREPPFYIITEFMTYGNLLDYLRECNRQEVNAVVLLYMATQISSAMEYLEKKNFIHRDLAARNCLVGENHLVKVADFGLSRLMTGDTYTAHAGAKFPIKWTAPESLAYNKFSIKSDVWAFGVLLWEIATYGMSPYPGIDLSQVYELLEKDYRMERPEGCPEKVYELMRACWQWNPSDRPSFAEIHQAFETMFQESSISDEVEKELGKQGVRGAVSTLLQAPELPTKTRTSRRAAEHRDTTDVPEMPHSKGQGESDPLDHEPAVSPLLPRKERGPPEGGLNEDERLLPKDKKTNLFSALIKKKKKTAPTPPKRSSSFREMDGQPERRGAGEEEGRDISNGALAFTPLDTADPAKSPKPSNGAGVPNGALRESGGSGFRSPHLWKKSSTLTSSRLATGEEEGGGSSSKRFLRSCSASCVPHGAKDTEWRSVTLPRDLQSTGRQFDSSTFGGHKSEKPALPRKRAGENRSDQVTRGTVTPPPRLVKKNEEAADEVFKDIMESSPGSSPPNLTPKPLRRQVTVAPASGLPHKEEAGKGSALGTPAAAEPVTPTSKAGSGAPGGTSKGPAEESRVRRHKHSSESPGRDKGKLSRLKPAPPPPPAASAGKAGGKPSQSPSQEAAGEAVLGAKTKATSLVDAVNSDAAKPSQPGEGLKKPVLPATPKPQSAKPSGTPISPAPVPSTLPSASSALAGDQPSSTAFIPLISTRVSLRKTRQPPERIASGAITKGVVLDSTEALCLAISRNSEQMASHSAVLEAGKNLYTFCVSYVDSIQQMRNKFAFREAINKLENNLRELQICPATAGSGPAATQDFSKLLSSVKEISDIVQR

EC50 (K562 cell line; Homo sapiens, K562 cells, 48 hours, CellTiter-Glo, read-out: median effective concentration (EC50)): 0.028 µM | BCR-ABL level after washout (BCR-ABL fusion protein; [5]): increased over time | BCR-ABL fusion protein level after washout (BCR-ABL fusion protein; [6]): remained at a low level | IC50 (K562 cells [1]): 0.068 µM | ABL level after washout (ABL [2]; [5]): increased over time | ABL level after washout (ABL [2]; [6]): almost disappeared | time at which ABL reached the maximum degradation (ABL [3]; 250 nM): 32 h | ABL level, time-effect (ABL [3]; 250 nM, 4 hours of incubation): significantly reduced | c-ABL level, time-effect (ABL [3]; 250 nM, after 10 hours): significantly degraded | ABL protein degraded, dose-effect (ABL [3]; 500 nM, 24 hours of incubation): almost all
Structure (SMILES): Cc1nc(Nc2ncc(C(=O)Nc3c(C)cccc3Cl)s2)cc(N2CCN(CCCCOc3ccc(/N=N/c4ccc(C(=O)Nc5cccc6c5CN(C5CCC(=O)NC5=O)C6=O)cc4)cc3)CC2)n1 (stereo not drawn) [Compound 4C, (E)-N-(2-chloro-6-methylphenyl)-2-((6-(4-(4-(4-((4-((2-(2,6-dioxopiperidin-3-yl)-1-oxoisoindolin-4-yl)carbamoyl)phenyl)diazenyl)phenoxy)butyl)piperazin-1-yl)-2-methylpyrimidin-4-yl)amino)thiazole-5-carboxamide]
selectivity for the BCR-ABL dependent K562 cell line (K562 cell line; versus A549, HCT116, HEK293T, MCF-7): good selectivity | effect on cell viability (A549): hardly affects | effect on cell viability (HEK293T): hardly affects | effect on cell viability (MCF-7 breast cancer): hardly affects | apoptosis of K562 cells (K562 cells [4]): obvious apoptosis
